Reference: the supplement of paper PMC10307832

Assays:
Experiment in all cases: relative viability (nuclei count vs DMSO), 5 days (fraction); higher = more cells survive
[1] = compound: C/C(=N\NC(=S)N1CCC1)/C2=CC=CC=N2 + CS(=O)(=O)CCNCc1ccc(-c2ccc3ncnc(Nc4ccc(OCc5cccc(F)c5)c(Cl)c4)c3c2)o1 [Lapatinib] (partner 2 µM)
Method in brief: (§1)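 Relative viability was taken as the ratio of nuclei in treated wells to nuclei in vehicle wells. Lung cancer cell lines in 1536-well plates received compounds by pin tool one day after seeding, either one drug alone or a fixed anchor-drug dose plus five library-drug doses (not always all listed) in √10 steps. Nuclei were counted on 4× images after 5 days of treatment, and values are medians of duplicate plates.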

[2] = compound: C/C(=N\NC(=S)N1CCC1)/C2=CC=CC=N2 + C[C@@H](Oc1cc(-c2cnn(C3CCNCC3)c2)cnc1N)c1c(Cl)ccc(F)c1Cl [Crizotinib] (partner 1 µM)
Method in brief: as §1

[3] = compound: C/C(=N\NC(=S)N1CCC1)/C2=CC=CC=N2 + Cc1cc(Nc2cc(N3CCN(C)CC3)nc(Sc3ccc(NC(=O)C4CC4)cc3)n2)n[nH]1 [Tozasertib] (partner 0.1 µM)
Method in brief: as §1

[4] = compound: C/C(=N\NC(=S)N1CCC1)/C2=CC=CC=N2 + Nc1ncn([C@H]2C[C@H](O)[C@@H](CO)O2)c(=O)n1 [Decitabine] (partner 2 µM)
Method in brief: as §1

Row | Cell Line | relative viability ([1]; first compound 0.05 µM) | relative viability ([1]; first compound 0.1581 µM) | relative viability ([1]; first compound 0.5 µM) | relative viability ([1]; first compound 1.581 µM) | relative viability ([1]; first compound 5 µM) | relative viability ([2]; first compound 0.05 µM) | relative viability ([2]; first compound 0.1581 µM) | relative viability ([2]; first compound 0.5 µM) | relative viability ([2]; first compound 1.581 µM) | relative viability ([2]; first compound 5 µM) | relative viability ([3]; first compound 0.05 µM) | relative viability ([3]; first compound 0.1581 µM) | relative viability ([3]; first compound 0.5 µM) | relative viability ([3]; first compound 1.581 µM) | relative viability ([3]; first compound 5 µM) | relative viability ([4]; first compound 0.05 µM) | relative viability ([4]; first compound 0.1581 µM) | relative viability ([4]; first compound 0.5 µM) | relative viability ([4]; first compound 1.581 µM) | relative viability ([4]; first compound 5 µM)
1 | 201T | 0.447 | 0.578 | 0.444 | 0.447 | 0.351 | 0.773 | 0.983 | 0.485 | 0.477 | 0.321 | 0.424 | 0.445 | 0.368 | 0.292 | 0.296 | 0.553 | 0.802 | 0.348 | 0.29 | 0.28
2 | A-427 | 0.138 | 0.149 | 0.138 | 0.115 | 0.139 | 0.267 | 0.445 | 0.0997 | 0.0835 | 0.129 | 0.1 | 0.0846 | 0.12 | 0.077 | 0.102 | 0.182 | 0.214 | 0.194 | 0.171 | 0.17
3 | ABC-1 | 0.475 | 0.513 | 0.495 | 0.459 | 0.456 | 0.23 | 0.189 | 0.2 | 0.172 | 0.142 | 0.193 | 0.146 | 0.152 | 0.168 | 0.163 | 0.343 | 0.373 | 0.385 | 0.381 | 0.287
4 | BEN | 0.178 | 0.201 | 0.21 | 0.203 | 0.188 | 0.193 | 0.182 | 0.244 | 0.177 | 0.169 | 0.334 | 0.354 | 0.336 | 0.352 | 0.397 | 0.253 | 0.338 | 0.318 | 0.266 | 0.359
5 | CAL-12T | 0.259 | 0.214 | 0.2 | 0.182 | 0.187 | 0.106 | 0.0871 | 0.12 | 0.103 | 0.0896 | 0.128 | 0.12 | 0.131 | 0.107 | 0.113 |  |  |  |  | 
6 | COR-L23 | 0.144 | 0.156 | 0.119 | 0.0787 | 0.101 | 0.11 | 0.119 | 0.12 | 0.0692 | 0.0727 | 0.101 | 0.0974 | 0.0768 | 0.0695 | 0.101 | 0.156 | 0.149 | 0.161 | 0.106 | 0.0995
7 | COR-L 105 | 0.375 | 0.342 | 0.375 | 0.314 | 0.286 | 0.231 | 0.252 | 0.224 | 0.205 | 0.256 | 0.205 | 0.245 | 0.229 | 0.231 | 0.22 | 0.31 | 0.413 | 0.327 | 0.306 | 0.313
8 | Calu-6 | 0.132 | 0.146 | 0.124 | 0.128 | 0.131 | 0.117 | 0.136 | 0.128 | 0.109 | 0.102 |  |  |  |  |  |  |  |  |  | 
9 | ChaGo-K-1 |  |  |  |  |  | 0.34 | 0.339 | 0.258 | 0.312 | 0.279 | 0.141 | 0.154 | 0.17 | 0.151 | 0.168 | 0.159 | 0.321 | 0.147 | 0.174 | 0.178
10 | EBC-1 | 0.225 | 0.195 | 0.226 | 0.191 | 0.161 | 0.173 | 0.187 | 0.163 | 0.162 | 0.128 |  |  |  |  |  |  |  |  |  | 
11 | EKVX | 0.108 | 0.137 | 0.119 | 0.153 | 0.131 | 0.142 | 0.159 | 0.121 | 0.137 | 0.159 | 0.131 | 0.108 | 0.101 | 0.103 | 0.12 | 0.15 | 0.138 | 0.13 | 0.138 | 0.16
12 | EMC-BAC-2 | 0.113 | 0.169 | 0.178 | 0.173 | 0.153 | 0.365 | 0.336 | 0.16 | 0.153 | 0.142 | 0.176 | 0.187 | 0.147 | 0.151 | 0.167 | 0.261 | 0.268 | 0.228 | 0.219 | 0.212
13 | EPLC-272H | 0.139 | 0.195 | 0.229 | 0.155 | 0.161 | 0.0969 | 0.187 | 0.121 | 0.126 | 0.171 | 0.0738 | 0.0936 | 0.118 | 0.0848 | 0.114 | 0.123 | 0.111 | 0.109 | 0.062 | 0.101
14 | H3255 | 0.255 | 0.218 | 0.14 | 0.157 | 0.184 | 0.289 | 0.309 | 0.288 | 0.222 | 0.189 | 0.331 | 0.167 | 0.288 | 0.193 | 0.232 | 0.211 | 0.231 | 0.24 | 0.209 | 0.228
15 | HARA | 0.102 | 0.115 | 0.155 | 0.0859 | 0.0828 | 0.361 | 0.227 | 0.152 | 0.115 | 0.0965 | 0.0547 | 0.0677 | 0.0627 | 0.0539 | 0.0645 | 0.229 | 0.168 | 0.153 | 0.242 | 0.164
16 | HCC-15 | 0.082 | 0.078 | 0.0841 | 0.0904 | 0.0765 | 0.21 | 0.412 | 0.0685 | 0.073 | 0.0642 | 0.0765 | 0.0513 | 0.112 | 0.0654 | 0.0641 | 0.0738 | 0.16 | 0.117 | 0.0902 | 0.0924
17 | HCC-44 | 0.292 | 0.184 | 0.177 | 0.156 | 0.232 | 0.783 | 0.208 | 0.186 | 0.209 | 0.229 | 0.359 | 0.309 | 0.257 | 0.246 | 0.231 | 0.559 | 0.544 | 0.52 | 0.551 | 0.428
18 | HCC-78 | 0.0064 | 0.211 | 0.226 | 0.158 | 0.178 | 0.338 | 0.251 | 0.237 | 0.142 | 0.167 | 0.332 | 0.205 | 0.248 | 0.206 | 0.202 | 0.453 | 0.413 | 0.407 | 0.244 | 0.22
